Biological target: T1, class II fructose 1,6-bisphosphate aldolase (SaFBA) (Staphylococcus aureus, UniProt Q5HE75)
T1 sequence (Q5HE75 1-286): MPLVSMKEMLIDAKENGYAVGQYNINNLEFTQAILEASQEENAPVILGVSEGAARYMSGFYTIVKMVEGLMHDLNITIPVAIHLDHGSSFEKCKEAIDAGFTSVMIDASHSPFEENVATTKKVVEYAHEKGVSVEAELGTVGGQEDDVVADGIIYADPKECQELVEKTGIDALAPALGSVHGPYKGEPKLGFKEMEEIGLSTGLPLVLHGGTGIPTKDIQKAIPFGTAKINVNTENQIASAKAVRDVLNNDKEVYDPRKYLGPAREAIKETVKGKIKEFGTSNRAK
Test: coupled fluorescence
Format: biochemical

`O=C(O)c1ccc2cccc(O)c2n1` [HCA, 8-hydroxyquinoline-2-carboxylic acid] showed a Ki of 96 ± 22 µM.
